According to PubChem BioAssay AID1963986 (Molecular Pharmacology Branch, DTP, NCI, 2024):

System: 171881-019-R-J1-PDC tumor spheroid viability
Test: Anticancer human tumor 171881-019-R-J1-PDC patient-derived invasive breast carcinoma cell line growth inhibition [PI3K]
Conditions: spheroids with HUVEC and MSC; for IC50: curve of first compound; for viability, T/C: stronger effect = lower value
Procedure, shortened: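 We assembled tumor spheroids that included a stromal compartment of HUVEC and MSCs, then exposed them to targeted agents alone and together with PI3K pathway inhibitors. Concentration series descended by half-log from clinically achievable Cmax levels. Viability served as the endpoint.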

[1] = second compound 0.0316 µM, first compound 0.0316 µM
[2] = second compound 0.0316 µM, first compound 0.1 µM
[3] = second compound 0.1 µM, first compound 0.0316 µM
[4] = second compound 0.1 µM, first compound 0.1 µM
[5] = second compound 0.316 µM, first compound 0.0316 µM
[6] = second compound 0.316 µM, first compound 0.1 µM
[7] = second compound 1 µM, first compound 0.0316 µM
[8] = second compound 1 µM, first compound 0.1 µM
[9] = second compound 3.16 µM, first compound 0.0316 µM
[10] = second compound 3.16 µM, first compound 0.1 µM
[11] = second compound 10 µM, first compound 0.0316 µM
[12] = second compound 10 µM, first compound 0.1 µM
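Further: spheroids exposed to compound for 7 days before viability read.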
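Wherever viability, T/C is given: 100% = DMSO vehicle-treated spheroids.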

CC(C)n1nc(-c2ccc3oc(N)nc3c2)c2c(N)ncnc21 + Cc1nc(NC(=O)N2CCCC2C(N)=O)sc1-c1ccnc(C(C)(C)C(F)(F)F)c1
IC50 (second compound 0.0316 µM): 6.6 nM
IC50 (second compound 0.1 µM): 4.2 nM
IC50 (second compound 0.316 µM): 0.378 nM
IC50 (second compound 1 µM): < 0.316 nM
IC50 (second compound 3.16 µM): < 0.316 nM
IC50 (second compound 10 µM): < 0.316 nM
viability, T/C (second compound 0.0316 µM, first compound 0.000316 µM): 93.8%
viability, T/C (second compound 0.0316 µM, first compound 0.001 µM): 78%
viability, T/C (second compound 0.0316 µM, first compound 0.00316 µM): 63.1%
viability, T/C (second compound 0.0316 µM, first compound 0.01 µM): 46.8%
viability, T/C [1]: 16.1%
viability, T/C [2]: 3.37%
viability, T/C (second compound 0.1 µM, first compound 0.000316 µM): 79.6%
viability, T/C (second compound 0.1 µM, first compound 0.001 µM): 74.2%
viability, T/C (second compound 0.1 µM, first compound 0.00316 µM): 52.7%
viability, T/C (second compound 0.1 µM, first compound 0.01 µM): 35.6%
viability, T/C [3]: 13.1%
viability, T/C [4]: 4.36%
viability, T/C (second compound 0.316 µM, first compound 0.000316 µM): 52%
viability, T/C (second compound 0.316 µM, first compound 0.001 µM): 44%
viability, T/C (second compound 0.316 µM, first compound 0.00316 µM): 38%
viability, T/C (second compound 0.316 µM, first compound 0.01 µM): 22.4%
viability, T/C [5]: 8.1%
viability, T/C [6]: 2.79%
viability, T/C (second compound 1 µM, first compound 0.000316 µM): 31.4%
viability, T/C (second compound 1 µM, first compound 0.001 µM): 26.7%
viability, T/C (second compound 1 µM, first compound 0.00316 µM): 18.5%
viability, T/C (second compound 1 µM, first compound 0.01 µM): 10.9%
viability, T/C [7]: 4.74%
viability, T/C [8]: 2.58%
viability, T/C (second compound 3.16 µM, first compound 0.000316 µM): 11.9%
viability, T/C (second compound 3.16 µM, first compound 0.001 µM): 11.9%
viability, T/C (second compound 3.16 µM, first compound 0.00316 µM): 8.19%
viability, T/C (second compound 3.16 µM, first compound 0.01 µM): 5.31%
viability, T/C [9]: 3.23%
viability, T/C [10]: 2.15%
viability, T/C (second compound 10 µM, first compound 0.000316 µM): 3.18%
viability, T/C (second compound 10 µM, first compound 0.001 µM): 3.44%
viability, T/C (second compound 10 µM, first compound 0.00316 µM): 2.64%
viability, T/C (second compound 10 µM, first compound 0.01 µM): 2.7%
viability, T/C [11]: 2.05%
viability, T/C [12]: 1.46%

CC1(C)CCC(CN2CCN(c3ccc(C(=O)NS(=O)(=O)c4ccc(NCC5CCOCC5)c([N+](=O)[O-])c4)c(Oc4cnc5[nH]ccc5c4)c3)CC2)=C(c2ccc(Cl)cc2)C1 + Cc1nc(NC(=O)N2CCCC2C(N)=O)sc1-c1ccnc(C(C)(C)C(F)(F)F)c1
IC50 (second compound 0.0316 µM): 3840 nM
IC50 (second compound 0.1 µM): 3340 nM
IC50 (second compound 0.316 µM): 1530 nM
IC50 (second compound 1 µM): < 31.6 nM
IC50 (second compound 3.16 µM): < 31.6 nM
IC50 (second compound 10 µM): < 31.6 nM
viability, T/C [1]: 102%
viability, T/C [2]: 86.9%
viability, T/C (second compound 0.0316 µM, first compound 0.316 µM): 90.8%
viability, T/C (second compound 0.0316 µM, first compound 1 µM): 81.5%
viability, T/C (second compound 0.0316 µM, first compound 3.16 µM): 56.6%
viability, T/C (second compound 0.0316 µM, first compound 10 µM): 13.9%
viability, T/C [3]: 94.3%
viability, T/C [4]: 70.6%
viability, T/C (second compound 0.1 µM, first compound 0.316 µM): 75.5%
viability, T/C (second compound 0.1 µM, first compound 1 µM): 73.7%
viability, T/C (second compound 0.1 µM, first compound 3.16 µM): 52%
viability, T/C (second compound 0.1 µM, first compound 10 µM): 13.1%
viability, T/C [5]: 54.8%
viability, T/C [6]: 52.6%
viability, T/C (second compound 0.316 µM, first compound 0.316 µM): 56.1%
viability, T/C (second compound 0.316 µM, first compound 1 µM): 57.6%
viability, T/C (second compound 0.316 µM, first compound 3.16 µM): 41%
viability, T/C (second compound 0.316 µM, first compound 10 µM): 10.3%
viability, T/C [7]: 33.8%
viability, T/C [8]: 34.3%
viability, T/C (second compound 1 µM, first compound 0.316 µM): 33.6%
viability, T/C (second compound 1 µM, first compound 1 µM): 33.4%
viability, T/C (second compound 1 µM, first compound 3.16 µM): 31.6%
viability, T/C (second compound 1 µM, first compound 10 µM): 8.49%
viability, T/C [9]: 13.2%
viability, T/C [10]: 14.2%
viability, T/C (second compound 3.16 µM, first compound 0.316 µM): 12.7%
viability, T/C (second compound 3.16 µM, first compound 1 µM): 14.6%
viability, T/C (second compound 3.16 µM, first compound 3.16 µM): 15.9%
viability, T/C (second compound 3.16 µM, first compound 10 µM): 5.35%
viability, T/C [11]: 3.36%
viability, T/C [12]: 3.47%
viability, T/C (second compound 10 µM, first compound 0.316 µM): 3.28%
viability, T/C (second compound 10 µM, first compound 1 µM): 3.12%
viability, T/C (second compound 10 µM, first compound 3.16 µM): 3.52%
viability, T/C (second compound 10 µM, first compound 10 µM): 2.22%
